In the NIST ThermoML archive (doi:10.1021/je300610y):

What was measured:
[1] = Crystal; for vapor or sublimation pressure: Transpiration method; for Normal melting temperature: DTA
[2] = Molar enthalpy of transition or fusion; conditions: Crystal; DSC

Clc1ccc(NC2=NCCC3(CCCCC3)S2)cc1 [N-(4-chlorophenyl)-1-thia-3-azaspiro[5.5]undec-2-en-2-amine]
[1]
Conditions	vapor or sublimation pressure [kPa]
370.15 K	1.08e-05
372.15 K	1.28e-05
373.15 K	1.3e-05
376.15 K	2e-05
377.15 K	2.79e-05
380.15 K	3.58e-05
383.15 K	5.41e-05
384.15 K	7.05e-05
387.15 K	7.69e-05
389.15 K	8.96e-05
391.15 K	0.0001171
393.15 K	0.0001487
395.15 K	0.0001855
398.15 K	0.0002176
400.15 K	0.0002803
403.15 K	0.0003898

Conditions	Molar enthalpy of transition or fusion [kcal/mol]	Normal melting temperature [°C]
[1]	–	162.6
[2]	10	–

Cc1ccc(NC2=NCCC3(CCCCC3)S2)cc1 [N-(4-methylphenyl)-1-thia-3-azaspiro[5.5]undec-2-en-2-amine]
[1]
Conditions	vapor or sublimation pressure [kPa]
353.15 K	9.4e-06
355.15 K	1.29e-05
356.15 K	1.58e-05
360.15 K	2.24e-05
363.15 K	3.02e-05
365.15 K	3.66e-05
366.15 K	4.54e-05
369.15 K	6.73e-05
372.15 K	9.76e-05
375.15 K	0.0001314
376.15 K	0.0001366
377.15 K	0.0001547
378.15 K	0.0001852
380.15 K	0.0002336
384.15 K	0.0003508

Conditions	Molar enthalpy of transition or fusion [kcal/mol]	Normal melting temperature [°C]
[1]	–	128.1
[2]	7.1	–

FC(F)(F)c1ccc(NC2=NCCC3(CCCCC3)S2)cc1
[1]
Conditions	vapor or sublimation pressure [kPa]
384.15 K	4.95e-05
385.15 K	5.32e-05
386.15 K	5.53e-05
387.15 K	6.2e-05
389.15 K	7.35e-05
390.15 K	8.5e-05
392.15 K	9.41e-05
393.15 K	0.0001076
394.15 K	0.0001185
395.15 K	0.0001376
397.15 K	0.0001497
398.15 K	0.0001884
399.15 K	0.0002215
401.15 K	0.0002241
402.15 K	0.0002762
403.15 K	0.0002858

Conditions	Molar enthalpy of transition or fusion [kcal/mol]	Normal melting temperature [°C]
[1]	–	149.7
[2]	7.86	–

CCc1ccc(NC2=NCCC3(CCCCC3)S2)cc1 [N-(4-ethylphenyl)-1-thia-3-azaspiro[5.5]undec-2-en-2-amine]
[1]
Conditions	vapor or sublimation pressure [kPa]
366.15 K	3.45e-05
367.15 K	4.16e-05
370.15 K	5.31e-05
372.15 K	7.08e-05
374.15 K	8.22e-05
376.15 K	0.0001151
377.15 K	0.0001434
380.15 K	0.0001583
382.15 K	0.0002134
384.15 K	0.0002567
386.15 K	0.000327
387.15 K	0.0003632
390.15 K	0.0004631
392.15 K	0.000642
394.15 K	0.0007981

Conditions	Molar enthalpy of transition or fusion [kcal/mol]	Normal melting temperature [°C]
[1]	–	139.4
[2]	10.2	–

Cc1ccc(NC2=NCCC3(CCCCC3)S2)cc1Cl
[1]
Conditions	vapor or sublimation pressure [kPa]
385.15 K	7.9e-06
386.15 K	8.8e-06
387.15 K	1.13e-05
388.15 K	1.22e-05
389.15 K	1.29e-05
391.15 K	1.59e-05
393.15 K	1.79e-05
395.15 K	2.05e-05
396.15 K	2.29e-05
397.15 K	2.95e-05
399.15 K	3.31e-05
401.15 K	3.4e-05
402.15 K	3.75e-05
404.15 K	4.55e-05
405.7 K	5.09e-05
406.4 K	5.34e-05
407.3 K	6.09e-05

Conditions	Molar enthalpy of transition or fusion [kcal/mol]	Normal melting temperature [°C]
[1]	–	149.2
[2]	7.93	–

Brc1ccc(NC2=NCCC3(CCCCC3)S2)cc1 [N-(4-bromophenyl)-1-thia-3-azaspiro[5.5]undec-2-en-2-amine]
[1]
Conditions	vapor or sublimation pressure [kPa]
374.15 K	5.7e-06
375.15 K	7.6e-06
378.15 K	1.05e-05
380.15 K	1.35e-05
385.15 K	1.92e-05
388.15 K	3.2e-05
391.15 K	4.17e-05
393.15 K	5.5e-05
395.15 K	6.74e-05
397.15 K	7.99e-05
399.15 K	9.5e-05
401.15 K	0.0001235
403.15 K	0.0001454
405.15 K	0.0001813
406.15 K	0.0002145
409.15 K	0.000277
411.15 K	0.0003482

Conditions	Molar enthalpy of transition or fusion [kcal/mol]	Normal melting temperature [°C]
[1]	–	175.2
[2]	10.6	–

c1ccc(NC2=NCCC3(CCCCC3)S2)cc1 [N-phenyl-1-thia-3-azaspiro[5.5]undec-2-en-2-amine]
[1]
Conditions	vapor or sublimation pressure [kPa]
342.15 K	6.9e-06
343.15 K	8.2e-06
345.15 K	1.01e-05
347.15 K	1.32e-05
349.15 K	1.47e-05
350.15 K	1.8e-05
352.15 K	2.39e-05
355.15 K	3.14e-05
357.15 K	4.42e-05
360.15 K	6.22e-05
361.15 K	6.34e-05
362.15 K	9.1e-05
365.15 K	0.0001035
367.15 K	0.0001298
368.15 K	0.0001351
369.15 K	0.0001541

Conditions	Molar enthalpy of transition or fusion [kcal/mol]	Normal melting temperature [°C]
[1]	–	113.4
[2]	5.16	–

CC(C)c1ccc(NC2=NCCC3(CCCCC3)S2)cc1
[1]
Conditions	vapor or sublimation pressure [kPa]
365.15 K	1.98e-05
366.15 K	2.34e-05
369.15 K	3.21e-05
371.15 K	3.7e-05
373.15 K	4.74e-05
375.15 K	5.94e-05
376.15 K	7.14e-05
379.15 K	8.3e-05
381.15 K	0.0001048
383.15 K	0.0001249
385.15 K	0.0001533
386.15 K	0.0001933
388.15 K	0.0001988
390.15 K	0.0002603
393.15 K	0.0003364

Conditions	Molar enthalpy of transition or fusion [kcal/mol]	Normal melting temperature [°C]
[1]	–	139.6
[2]	6.98	–
